{"source": "paper PMC6123676", "about": "“Androgen receptor degradation by the proteolysis-targeting chimera ARCC-4 outperforms enzalutamide in cellular models of prostate cancer drug resistance” (Communications Biology, 2018)", "key": {"androgen receptor [1]": {"target": "T1, androgen receptor (Homo sapiens, UniProt P10275)", "assay": "competition radioligand binding with [3H]R1881 (LNCaP cell lysate)", "parameters": "gene AR; AR in LNCaP cell lysates"}, "androgen receptor [2]": {"target": "T1, androgen receptor", "assay": "PROTAC degradation of AR in VCaP cells, western blot (Dmax)", "format": "cell-based", "parameters": "gene AR; endogenous AR in VCaP cells; with VHL"}, "von Hippel-Lindau (VHL)": {"target": "T2, von Hippel-Lindau (VHL) (Homo sapiens, UniProt P40337)", "T2 construct": "endogenous VHL in VCaP cells; with androgen receptor", "T2 sequence (P10275 whole entry)": "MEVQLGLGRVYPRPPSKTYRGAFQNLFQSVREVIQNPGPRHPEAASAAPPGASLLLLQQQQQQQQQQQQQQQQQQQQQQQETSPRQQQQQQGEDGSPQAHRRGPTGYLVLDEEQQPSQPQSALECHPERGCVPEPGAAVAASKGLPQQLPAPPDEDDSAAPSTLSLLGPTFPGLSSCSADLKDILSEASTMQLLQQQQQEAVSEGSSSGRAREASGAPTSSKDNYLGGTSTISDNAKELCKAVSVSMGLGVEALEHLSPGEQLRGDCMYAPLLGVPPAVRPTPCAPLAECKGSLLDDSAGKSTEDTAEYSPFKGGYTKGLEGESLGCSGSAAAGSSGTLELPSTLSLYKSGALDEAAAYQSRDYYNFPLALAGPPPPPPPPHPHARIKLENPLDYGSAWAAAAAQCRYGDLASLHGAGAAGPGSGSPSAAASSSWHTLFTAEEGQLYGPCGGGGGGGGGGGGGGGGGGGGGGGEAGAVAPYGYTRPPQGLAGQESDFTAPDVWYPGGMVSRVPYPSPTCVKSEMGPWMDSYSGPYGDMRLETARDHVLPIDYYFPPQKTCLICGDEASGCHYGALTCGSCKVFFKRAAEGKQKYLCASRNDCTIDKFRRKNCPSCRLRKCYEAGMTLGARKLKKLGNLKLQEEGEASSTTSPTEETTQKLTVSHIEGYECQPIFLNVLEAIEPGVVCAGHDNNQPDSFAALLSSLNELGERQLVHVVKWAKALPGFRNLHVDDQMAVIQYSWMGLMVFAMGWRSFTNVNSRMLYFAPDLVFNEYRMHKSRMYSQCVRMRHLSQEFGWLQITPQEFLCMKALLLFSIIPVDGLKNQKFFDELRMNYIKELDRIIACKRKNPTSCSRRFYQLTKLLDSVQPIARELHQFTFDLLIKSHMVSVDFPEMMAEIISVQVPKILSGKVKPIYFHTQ", "T2 sequence (P40337 whole entry)": "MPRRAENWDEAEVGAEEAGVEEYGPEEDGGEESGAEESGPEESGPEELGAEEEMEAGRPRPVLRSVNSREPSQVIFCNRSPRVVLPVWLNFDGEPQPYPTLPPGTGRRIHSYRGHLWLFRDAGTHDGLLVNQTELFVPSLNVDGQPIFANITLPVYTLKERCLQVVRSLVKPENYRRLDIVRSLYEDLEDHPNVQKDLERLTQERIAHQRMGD", "assay": "AR degradation lost on VHL knockdown and with the non-VHL-binding epimer", "format": "cell-based"}, "androgen receptor [3]": {"target": "T1, androgen receptor", "parameters": "gene AR"}, "androgen receptor [4]": {"target": "T1, androgen receptor", "assay": "degradation of AR in VCaP cells, western blot (DC50; Dmax […])", "format": "cell-based", "parameters": "gene AR; endogenous AR in VCaP cells"}}, "note": "pIC50: −log10 of the molar value. Read-outs that look alike come from different tables or passages of the source."}
{"compound": "Cc1ncsc1-c1ccc(CNC(=O)[C@@H]2C[C@H](O)CN2C(=O)[C@@H](NC(=O)COCCCCOc2ccc(-c3ccc(N4C(=S)N(c5ccc(C#N)c(C(F)(F)F)c5)C(=O)C4(C)C)cc3)cc2)C(C)(C)C)cc1", "note": "(mixture of isomers) [compound 3, epimer]", "values": [{"measurement": "pIC50", "setting": "androgen receptor [1]", "result": 7.39}]}
{"compound": "Cc1ncsc1-c1ccc(CNC(=O)[C@@H]2C[C@@H](O)CN2C(=O)[C@@H](NC(=O)COCCOCCOCCOc2ccc(N3C(=S)N(c4ccc(C#N)c(C(F)(F)F)c4)C(=O)C3(C)C)cc2)C(C)(C)C)cc1", "note": "[2a]", "values": [{"measurement": "Dmax", "setting": "androgen receptor [2]", "result": 47, "unit": "%"}]}
{"compound": "Cc1ncsc1-c1ccc(CNC(=O)[C@@H]2C[C@@H](O)CN2C(=O)[C@@H](NC(=O)COCCCCOc2ccc(-c3ccc(N4C(=S)N(c5ccc(C#N)c(C(F)(F)F)c5)C(=O)C4(C)C)cc3)cc2)C(C)(C)C)cc1", "note": "[2c, ARCC-4]", "values": [{"measurement": "AR degradation lost on VHL knockdown and with the non-VHL-binding epimer", "setting": "von Hippel-Lindau (VHL)", "result": "confirmed that ARCC-4-mediated AR degradation is dependent upon VHL recruitment and binding"}, {"measurement": "pIC50", "setting": "androgen receptor [1]; read-out: IC50", "result": 7.44}]}
{"compound": "C[C@]1(O)CC[C@H]2[C@@H]3CCC4=CC(=O)CCC4=C3C=C[C@@]21C", "note": "[R1881]", "values": [{"measurement": "radioligand of the AR binding assay; also out-competes ARCC-4 in VCaP cells", "setting": "androgen receptor [3]", "result": "AR radioligand binding assay to determine the IC50 values for inhibiting binding between AR and (^3H) R1881"}]}
{"compound": "CC1(C)C(=O)N(c2ccc(C#N)c(C(F)(F)F)c2)C(=S)N1CCCC(=O)NCCOCCOC(=O)CC12CC3CC(CC(C3)C1)C2", "note": "[SARD279]", "values": [{"measurement": "DC50", "setting": "androgen receptor [4]", "result": 1100, "unit": "nM"}]}
